Assay results: patent publication US5556849A, “Ruthenium containing phthalocyanin photosensitizers” (priority 1991, dated 1996)

What was measured:
[1] = test system: Adherent cells (HeLa RCA. SKOV OVCAR); assay: Phototoxicity (Light): 3H-thymidine incorporation in adherent cells after irradiation, with dark cytotoxicity for PI; format: cell-based
Description: The media is removed and the cells washed three times with D-PBS. and then covered with D-PBS (200 μl ) and exposed to light from the same source used in the singlet oxygen assay.
This follows the procedure for phototoxicity except that the cells are never exposed to light. The assay is relative to a non-treated control.
(§1) Compounds according to the invention were assessed and characterised by their light absorption maxima, and their molar extinction coefficients according to conventional test procedures. Most of the compound were tested for their biological activity according to conventional test procedures in the art. The PC50 represents phototoxic concentration 50%. which is the concentration of compound when exposed to a light dose as described herein, causes a 50% reduction in cancer cell growth vs an untreated control population. The phototoxicity index. PI, is the ratio of the PC50 to the cytotoxic concentration 50%. where the growth is reduced by 50% without a light dose being given.
PC50 is determined by a relatively simple in vitro assay on a cellular level, which is generally indicative of photosensitizing activity.

[2] = Light absorption maxima and molar extinction coefficients; format: physicochemical
Description: as §1

normal rat liver = assay: Photodynamic threshold dose in normal rat liver, depth of necrosis; format: in vivo, adult Wistat rats
Description: The photodynamic threshold dose in normal rat liver was used as a model. This has been developed by Singh and Wilson at McMaster University and used to study both chloroaluminum phthalocyanine sulfonate (ASPc) and photofrin (Patterson, M S, et at, Photochern Photobiol, 51,343-349, 1990, and Farrell, T J, et at, Proc SPIE1426, 146-155, 1991).
1. Inject compound at 2.5 mg/ml into tail vein of adult Wistat rats at doses of 5, 10.20 mg/kg.
2. 24 hours later expose liver by laparotomy and irradiate surface at up to four locations with a 5 mm diameter lightbeam from an argon-dye laser operating at 650 nm: incident power =40 m Watt: incident fluenee rate =200 mW cm^-2 : treatment time =5 or 10 minutes (60. 120 Joules cm^-2).
3. 24 hours later inject Evans Blue iv, sacrifice at 15 minutes, section Liver through each radiation spot and measure depth of necrosis as indicated by dye exclusion.

[3] = Singlet oxygen generation by photo-degradation of nitrosoanaline dye; details: 15 minutes of irradiation, 4° C.

K2 [Ru(Pc)bis(triphenvlphosphine monosulfonate)]trihydrate [Compound A]
PI (phototoxicity index) ([1]; ratio of PC50 to cytotoxic concentration 50% (no light)): > 100
IC50 ([1]; with light dose, 50% reduction in cancer cell growth vs untreated control, 24 h incubation with sensitizer, read-out: PC50 (phototoxic concentration 50%)): 1140 nM
ε (molar extinction coefficient) [2]: 88200 M⁻¹ cm⁻¹
λmax Q ([2]; in water (W)): 650
depths of necrosis compared with previously studied agents (normal rat liver; at similar drug and light levels, Photofrin and AlSPc given ip): comparable to those with previously studied agents
Depth of Necrosis (normal rat liver; dose 5 mg/kg iv, fluence 60 J cm^-2, 650 nm): 1.86 ± 0.34 mm
Depth of Necrosis (normal rat liver; dose 5 mg/kg iv, fluence 120 J cm^-2, 650 nm): 2.5 ± 0.0 mm
Depth of Necrosis (normal rat liver; dose 10 mg/kg iv, fluence 60 J cm^-2, 650 nm): 2.16 ± 0.10 mm
Depth of Necrosis (normal rat liver; dose 10 mg/kg iv, fluence 120 J cm^-2, 650 nm): 2.41 ± 0.16 mm
Depth of Necrosis (normal rat liver; dose 20 mg/kg iv, fluence 60 J cm^-2, 650 nm): 1.66 ± 0.05 mm
Depth of Necrosis (normal rat liver; dose 20 mg/kg iv, fluence 120 J cm^-2, 650 nm): 1.94 ± 0.04 mm
photodynamic activity in vivo (normal rat liver; in words): photodynamically active in vivo

aluminium phthalocyanine sulphonate
rate of singlet oxygen production [3]: on the order of one or two logs better than some of the sensitizers listed
